Calls of active or inactive are those of the source. The rule behind the calls is not given here.
Columns and labels:
[1] = biological target: T1, Phosphatidylinositol 4,5-bisphosphate 3-kinase catalytic subunit delta isoform (Homo sapiens, UniProt O00329); assay: Inhibition of PI3Kdelta (unknown origin) using PIP2 as substrate after 2 hrs by ADP-Glo assay
T1 sequence (O00329 whole entry): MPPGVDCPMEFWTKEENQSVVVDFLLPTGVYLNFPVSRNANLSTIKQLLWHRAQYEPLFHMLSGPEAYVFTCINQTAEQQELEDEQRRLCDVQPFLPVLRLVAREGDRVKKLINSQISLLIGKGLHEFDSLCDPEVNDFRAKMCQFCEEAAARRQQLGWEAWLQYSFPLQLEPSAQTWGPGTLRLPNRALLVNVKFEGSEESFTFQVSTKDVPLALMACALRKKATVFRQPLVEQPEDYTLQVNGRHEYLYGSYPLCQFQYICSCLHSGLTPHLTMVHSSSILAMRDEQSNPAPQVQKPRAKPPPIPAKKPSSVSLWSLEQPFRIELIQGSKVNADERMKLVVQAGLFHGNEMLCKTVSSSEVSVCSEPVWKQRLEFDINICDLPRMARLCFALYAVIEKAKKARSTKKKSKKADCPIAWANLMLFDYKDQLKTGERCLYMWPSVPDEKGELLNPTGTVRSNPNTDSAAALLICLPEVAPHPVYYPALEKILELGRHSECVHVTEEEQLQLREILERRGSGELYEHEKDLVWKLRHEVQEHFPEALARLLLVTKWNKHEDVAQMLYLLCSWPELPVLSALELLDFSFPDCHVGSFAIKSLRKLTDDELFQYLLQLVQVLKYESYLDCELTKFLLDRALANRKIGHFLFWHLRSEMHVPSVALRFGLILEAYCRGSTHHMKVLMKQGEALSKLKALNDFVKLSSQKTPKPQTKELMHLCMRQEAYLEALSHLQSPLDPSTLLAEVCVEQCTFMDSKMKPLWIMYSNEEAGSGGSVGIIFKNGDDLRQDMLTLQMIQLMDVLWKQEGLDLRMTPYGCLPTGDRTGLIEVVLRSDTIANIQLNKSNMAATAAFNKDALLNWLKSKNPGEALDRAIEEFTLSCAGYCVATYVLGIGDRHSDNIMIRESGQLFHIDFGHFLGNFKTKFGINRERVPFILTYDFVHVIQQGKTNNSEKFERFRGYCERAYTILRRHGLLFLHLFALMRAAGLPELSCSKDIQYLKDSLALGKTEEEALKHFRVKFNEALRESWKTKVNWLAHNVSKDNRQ

[2] = tested on: SU-DHL-6; assay: Antiproliferative activity against human SU-DHL6 cells after 72 hrs by CellTiter-Glo luminescent cell viability assay; assay type: functional; conditions: SU-DHL-6, 72 h
[3] = human, microsomes
Description: Intrinsic clearance in liver by measuring in intrinsic clearance in human liver microsomes in presence of NADPH by LC-MS/MS analysis

[4] = rat, microsomes
Description: Intrinsic clearance in liver by measuring in intrinsic clearance in rat liver microsomes in presence of NADPH by LC-MS/MS analysis

[5] = biological target: Phosphatidylinositol 4,5-bisphosphate 3-kinase catalytic subunit gamma isoform (Homo sapiens, UniProt P48736); assay: Inhibition of PI3Kgamma (unknown origin) using PIP2 as substrate after 2 hrs by ADP-Glo assay
Sequence of Phosphatidylinositol 4,5-bisphosphate 3-kinase catalytic subunit gamma isoform (P48736 whole entry, canonical isoform): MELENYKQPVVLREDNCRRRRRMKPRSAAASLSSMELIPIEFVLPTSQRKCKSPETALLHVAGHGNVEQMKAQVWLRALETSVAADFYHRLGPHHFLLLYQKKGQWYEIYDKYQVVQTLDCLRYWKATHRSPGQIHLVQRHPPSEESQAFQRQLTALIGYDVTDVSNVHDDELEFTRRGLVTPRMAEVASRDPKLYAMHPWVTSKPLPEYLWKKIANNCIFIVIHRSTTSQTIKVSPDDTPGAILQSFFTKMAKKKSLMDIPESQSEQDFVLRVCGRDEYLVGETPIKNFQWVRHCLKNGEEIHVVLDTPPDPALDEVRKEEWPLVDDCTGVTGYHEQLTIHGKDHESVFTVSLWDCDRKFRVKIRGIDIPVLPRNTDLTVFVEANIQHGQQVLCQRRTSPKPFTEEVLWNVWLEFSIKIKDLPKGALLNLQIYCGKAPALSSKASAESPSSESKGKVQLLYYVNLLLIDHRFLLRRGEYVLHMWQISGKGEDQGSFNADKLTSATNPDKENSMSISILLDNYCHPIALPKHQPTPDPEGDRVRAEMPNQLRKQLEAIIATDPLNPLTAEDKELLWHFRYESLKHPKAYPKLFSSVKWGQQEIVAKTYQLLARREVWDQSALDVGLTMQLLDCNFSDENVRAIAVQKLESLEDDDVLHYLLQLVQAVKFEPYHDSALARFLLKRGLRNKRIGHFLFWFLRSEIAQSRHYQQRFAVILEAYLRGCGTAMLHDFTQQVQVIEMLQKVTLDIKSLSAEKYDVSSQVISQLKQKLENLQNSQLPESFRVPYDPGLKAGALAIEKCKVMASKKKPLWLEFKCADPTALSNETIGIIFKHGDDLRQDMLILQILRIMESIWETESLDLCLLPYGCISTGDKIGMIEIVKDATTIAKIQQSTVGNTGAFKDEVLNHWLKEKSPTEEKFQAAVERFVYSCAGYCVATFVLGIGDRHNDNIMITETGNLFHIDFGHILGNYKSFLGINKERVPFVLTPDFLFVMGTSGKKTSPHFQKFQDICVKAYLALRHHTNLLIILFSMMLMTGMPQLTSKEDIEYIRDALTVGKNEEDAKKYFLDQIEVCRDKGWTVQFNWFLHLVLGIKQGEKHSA

[6] = biological target: Phosphatidylinositol 4,5-bisphosphate 3-kinase catalytic subunit alpha isoform (Homo sapiens, UniProt P42336); assay: Inhibition of PI3Kalpha (unknown origin) using PIP2 as substrate after 2 hrs by ADP-Glo assay
Sequence of Phosphatidylinositol 4,5-bisphosphate 3-kinase catalytic subunit alpha isoform (P42336 whole entry, canonical isoform): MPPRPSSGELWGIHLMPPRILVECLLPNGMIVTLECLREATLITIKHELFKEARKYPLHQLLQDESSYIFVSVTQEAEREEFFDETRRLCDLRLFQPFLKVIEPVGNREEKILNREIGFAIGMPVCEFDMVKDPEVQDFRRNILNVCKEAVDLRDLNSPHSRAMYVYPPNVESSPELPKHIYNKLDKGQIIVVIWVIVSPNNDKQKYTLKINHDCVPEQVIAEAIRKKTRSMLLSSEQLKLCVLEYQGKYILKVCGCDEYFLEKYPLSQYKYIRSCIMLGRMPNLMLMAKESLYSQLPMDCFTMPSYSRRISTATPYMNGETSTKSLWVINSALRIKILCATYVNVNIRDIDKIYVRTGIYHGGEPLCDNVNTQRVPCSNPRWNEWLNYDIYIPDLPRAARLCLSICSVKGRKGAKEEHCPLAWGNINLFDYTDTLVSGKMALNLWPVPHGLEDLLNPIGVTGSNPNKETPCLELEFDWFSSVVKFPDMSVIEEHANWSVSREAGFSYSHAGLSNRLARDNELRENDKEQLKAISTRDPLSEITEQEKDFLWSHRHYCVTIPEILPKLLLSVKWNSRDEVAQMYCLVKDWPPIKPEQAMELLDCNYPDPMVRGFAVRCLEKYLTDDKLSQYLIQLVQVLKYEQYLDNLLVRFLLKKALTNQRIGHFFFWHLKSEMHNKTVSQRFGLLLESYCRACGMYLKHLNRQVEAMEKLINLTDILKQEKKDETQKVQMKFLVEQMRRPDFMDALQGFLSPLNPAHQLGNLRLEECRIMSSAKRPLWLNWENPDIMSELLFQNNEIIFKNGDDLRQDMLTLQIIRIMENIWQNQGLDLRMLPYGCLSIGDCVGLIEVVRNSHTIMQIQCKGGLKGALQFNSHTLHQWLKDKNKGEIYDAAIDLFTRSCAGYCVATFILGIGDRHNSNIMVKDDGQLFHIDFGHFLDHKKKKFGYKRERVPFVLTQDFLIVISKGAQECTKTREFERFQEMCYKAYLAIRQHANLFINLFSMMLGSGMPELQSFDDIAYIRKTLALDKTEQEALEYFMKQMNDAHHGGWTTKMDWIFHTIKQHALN

[7] = biological target: Phosphatidylinositol 4,5-bisphosphate 3-kinase catalytic subunit beta isoform (Homo sapiens, UniProt P42338); assay: Inhibition of PI3Kbeta (unknown origin) using PIP2 as substrate after 2 hrs by ADP-Glo assay
Sequence of Phosphatidylinositol 4,5-bisphosphate 3-kinase catalytic subunit beta isoform (P42338 whole entry, canonical isoform): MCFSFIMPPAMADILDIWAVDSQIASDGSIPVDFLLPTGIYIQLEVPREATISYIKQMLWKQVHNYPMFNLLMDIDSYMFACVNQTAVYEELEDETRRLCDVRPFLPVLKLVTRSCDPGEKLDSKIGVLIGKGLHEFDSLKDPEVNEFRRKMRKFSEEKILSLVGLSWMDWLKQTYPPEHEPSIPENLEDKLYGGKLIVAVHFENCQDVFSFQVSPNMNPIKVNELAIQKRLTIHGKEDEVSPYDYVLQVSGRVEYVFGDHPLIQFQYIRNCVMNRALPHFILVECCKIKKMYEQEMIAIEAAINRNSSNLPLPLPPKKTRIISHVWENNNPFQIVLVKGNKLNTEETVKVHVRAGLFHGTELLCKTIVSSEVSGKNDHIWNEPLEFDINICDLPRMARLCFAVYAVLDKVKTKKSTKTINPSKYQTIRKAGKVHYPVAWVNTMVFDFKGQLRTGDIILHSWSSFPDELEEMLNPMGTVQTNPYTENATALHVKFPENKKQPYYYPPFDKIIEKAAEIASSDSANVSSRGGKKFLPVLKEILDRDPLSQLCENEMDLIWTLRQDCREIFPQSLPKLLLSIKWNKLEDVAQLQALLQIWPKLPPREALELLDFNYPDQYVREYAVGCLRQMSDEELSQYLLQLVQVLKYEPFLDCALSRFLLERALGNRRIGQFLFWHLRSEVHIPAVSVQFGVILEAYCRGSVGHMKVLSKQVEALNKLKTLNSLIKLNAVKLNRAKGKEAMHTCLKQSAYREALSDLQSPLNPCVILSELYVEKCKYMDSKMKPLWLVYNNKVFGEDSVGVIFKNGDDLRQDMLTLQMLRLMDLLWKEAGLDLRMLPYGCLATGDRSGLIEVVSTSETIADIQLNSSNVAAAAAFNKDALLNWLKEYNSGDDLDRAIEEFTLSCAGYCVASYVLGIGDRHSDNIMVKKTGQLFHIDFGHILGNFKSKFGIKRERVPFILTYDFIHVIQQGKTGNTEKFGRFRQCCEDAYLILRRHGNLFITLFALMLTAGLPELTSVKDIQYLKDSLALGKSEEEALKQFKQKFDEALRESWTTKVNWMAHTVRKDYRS

[8] = in vitro; conditions: human, liver microsomes
Description: Intrinsic clearance in human liver microsomes assessed per mg protein in presence of NADPH by LC-MS/MS analysis

[9] = in vitro; conditions: rat, liver microsomes
Description: Half life in rat liver microsomes in presence of NADPH by LC-MS/MS analysis

[10] = in vitro; conditions: rat, liver microsomes; remark: listed apart in the source
Description: Intrinsic clearance in rat liver microsomes assessed per mg protein in presence of NADPH by LC-MS/MS analysis

[11] = in vitro; conditions: human, liver microsomes; remark: listed apart in the source
Description: Half life in human liver microsomes in presence of NADPH by LC-MS/MS analysis

[12] = in vitro; conditions: rat, liver microsomes; remark: listed apart in the source
Description: Metabolic stability in rat liver microsomes assessed as compound remaining after 60 mins in presence of NADPH by LC-MS/MS analysis

[13] = in vitro; conditions: human, liver microsomes; remark: listed apart in the source
Description: Metabolic stability in human liver microsomes assessed as compound remaining after 60 mins in presence of NADPH by LC-MS/MS analysis

[14] = biological target: T2, Phosphatidylinositol 4,5-bisphosphate 3-kinase catalytic subunit delta isoform (Homo sapiens) (UniProt O00329); assay: Inhibition of PI3Kdelta in human SU-DHL6 cells assessed as reduction in Akt phosphorylation at S473 residue after 2 hrs by Western blot analysis; assay type: cell-based
T2 sequence (whole entry): T1 sequence (O00329 whole entry)

[15] = biological target: T2, Phosphatidylinositol 4,5-bisphosphate 3-kinase catalytic subunit delta isoform (Homo sapiens); assay: Inhibition of PI3Kdelta in human SU-DHL6 cells assessed as reduction in S6K1 phosphorylation at T389 residue after 2 hrs by Western blot analysis; assay type: cell-based
[16] = Half life in Sprague-Dawley rat at 10 mg/kg, po administered via gavage by LC-MS/MS analysis; assay type: ADME, organism-based; conditions: in vivo
[17] = biological target: T2, Phosphatidylinositol 4,5-bisphosphate 3-kinase catalytic subunit delta isoform (Homo sapiens); assay: Inhibition of PI3Kdelta in human SU-DHL6 cells assessed as reduction in S6K1 phosphorylation at T389 residue a at 100 nM after 2 hrs by Western blot analysis; assay type: cell-based
[18] = AUC (0 to last) in Sprague-Dawley rat at 10 mg/kg, po administered via gavage by LC-MS/MS analysis; assay type: ADME, organism-based; design: dose 10 mg/kg, time 0 - last, route oral; conditions: in vivo
[19] = biological target: T2, Phosphatidylinositol 4,5-bisphosphate 3-kinase catalytic subunit delta isoform (Homo sapiens); assay: Inhibition of PI3Kdelta in human SU-DHL6 cells assessed as reduction in Akt phosphorylation at S473 residue at 100 nM after 2 hrs by Western blot analysis; assay type: cell-based

O=c1c2c(F)cccc2nc([C@@H]2CCCN2c2ncnc3[nH]cnc23)n1Cc1ccccc1
IC50 [1]: 58 nM | GI50 [2]: 480 nM

O=c1c2c(F)cccc2nc([C@@H]2CCCN2c2ncnc3[nH]cnc23)n1C1CCCC1
IC50 [1]: 38 nM | GI50 [2]: 2650 nM

CC[C@H](Nc1ncnc2[nH]cnc12)c1nc2cccc(F)c2c(=O)n1-c1ccccc1 [IDELALISIB]
GI50 [2]: 20 nM

O=c1c2c(F)cccc2nc([C@@H]2CCCN2c2nc(F)nc3[nH]cnc23)n1Cc1ccccc1
IC50 [1]: 91 nM | GI50 [2]: 380 nM

O=c1c2ccccc2nc([C@@H]2CCCN2c2ncnc3[nH]cnc23)n1Cc1ccccc1
IC50 [1]: 498 nM | GI50 [2]: 580 nM

CCCCn1c([C@@H]2CCCN2c2ncnc3[nH]cnc23)nc2cccc(F)c2c1=O
IC50 [1]: 42 nM | GI50 [2]: 640 nM

C[C@]12CC[C@H]3[C@@H](CCC4=CC(=O)CC[C@@]43C)[C@@H]1CC[C@@H]2O [TESTOSTERONE]
CLH [3]: 0.0911 mL/min/kg | CLH [4]: 3.7756 mL/min/kg

N#Cc1c(N)ncnc1N1CCC[C@H]1c1nc2cccc(F)c2c(=O)n1Cc1ccccc1
IC50 [5]: 587 nM | IC50 [6]: 4940 nM | IC50 [7]: 6240 nM | microsomal CLint [8]: 44.6 µL/min/mg | CLH [3]: 0.0401 mL/min/kg | IC50 [1]: 22 nM | GI50 [2]: 330 nM | half-life [9]: 1.6 min | microsomal CLint [10]: 865 µL/min/mg | CLH [4]: 1.5571 mL/min/kg | half-life [11]: 31.1 min | remaining at 1 h [12]: 0.1% | remaining at 1 h [13]: 25.5%

O=c1c2c(F)cccc2nc([C@@H]2CCCN2c2ncnc3[nH]cnc23)n1C1CCC1
IC50 [1]: 635 nM | GI50 [2]: 630 nM

N#Cc1c(N)ncnc1N1CCC[C@H]1c1nc2cccc(F)c2c(=O)n1C1CCCC1
IC50 [5]: 354 nM | IC50 [6]: 8590 nM | IC50 [7]: 1550 nM | microsomal CLint [8]: 79.2 µL/min/mg | inhibition [14]: Dose-dependent effect | inhibition [15]: Dose-dependent effect | CLH [3]: 0.0713 mL/min/kg | IC50 [1]: 6.3 nM | GI50 [2]: 210 nM | half-life [16]: 246 min | half-life [9]: 15.1 min | microsomal CLint [10]: 91.7 µL/min/mg | inhibition [17]: Active | AUC(0-t) [18]: 50.8 ng·h/mL | CLH [4]: 0.1651 mL/min/kg | half-life [11]: 17.5 min | inhibition [19]: Active | remaining at 1 h [12]: 6.2% | remaining at 1 h [13]: 9.1%

O=c1c2c(F)cccc2nc([C@@H]2CCCN2c2ncnc3[nH]cnc23)n1C1CCCCC1
IC50 [1]: 33 nM | GI50 [2]: 510 nM

O=c1c2c(F)cccc2nc([C@@H]2CCCN2c2nc(F)nc3[nH]cnc23)n1C1CCCC1
IC50 [1]: 178 nM | GI50 [2]: 1890 nM

O=C(O)Cc1ccccc1Nc1c(Cl)cccc1Cl [DICLOFENAC]
CLH [4]: 0.143 mL/min/kg
